By EC50 is commonly meant the midpoint of the concentration-response curve. As a reminder, the IC50 is the point on the concentration scale where inhibition reaches its midpoint. Lower therefore signals greater potency.

Active and inactive are the calls of the source.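 Rule for the calls: active = compounds giving half or more protection of infected cells from virus-caused growth loss, again on retest; inactive = the rest.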

This assay concerns CEM cells HIV-1 protection, formazan growth assay. The assay can be described thus: NCI AIDS Antiviral Assay. The settings on record: for IC50: measured here: growth of uninfected CEM cells. A digest of the protocol: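 Human CEM cells, uninfected and HIV-1-infected, received five drug concentrations, and growth was read by soluble formazan assay. Compounds giving at least 50% protection were retested; reproducible 100% protection defined confirmed active.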

In the case of `CC(Cc1ccccc1)NC(=O)CCNNC(=O)c1ccncc1` (stereo not given), the EC50 is above 200 µM and the IC50 was above 200 µM. Turning to `CCCCOC(=O)NC(=O)c1cc2cc(Cl)cc(Cl)c2oc1=O`, the EC50 is above 13.8 µM and the IC50 was above 13.8 µM. Take `CCCCCC(=O)n1[nH]c(=O)n(-c2ccc(OC)cc2)c1=O`: the EC50 was above 200 µM and the IC50 was above 200 µM. On to `Cn1c(-c2ccc(/C=N/N=C(\N)N/N=C/c3ccc(-c4c[n+]5ccsc5n4C)cc3)cc2)c[n+]2ccsc12`, for which the EC50 was 6.03 µM and the half-maximal inhibitory concentration (IC50) came to 120 µM. On to `Clc1cccc(Cl)c1C1SCc2nc3ccccc3n21` (stereo not given), for which the EC50 is 0.224 µM and the IC50 came out at 21.9 µM. For `COC(=O)[C@@H]1C[C@]2(CC=O)c3ccccc3N(S(=O)(=O)c3ccccc3)[C@@H]2N1C(=O)OC`, in that order: above 100 µM and 70.8 µM. The corresponding values for `CC(=O)Nc1ccc(-c2nnc(SCC(=O)Nc3ccc([N+](=O)[O-])cc3)o2)cc1` are above 45.7 µM and 7.94 µM. For `CCN(CC)C1Oc2cc3c(cc2C(c2cc(OC)c(OC)c(OC)c2)C1C)OCO3` (stereo not given), in that order: above 100 µM and 0.537 µM.

Consider `O=C(CCc1nnc2s/c(=C\c3ccc4c(c3)OCO4)c(=O)n12)Nc1cc(Cl)ccc1Cl`, for which the EC50 is 72.4 µM and the 50% inhibitory concentration (IC50) was determined as 513 µM.

Consider `O=C1C2c3[nH]c4ccccc4c3[C@@H]3CCCCC3C2C(=O)N1c1ccccc1` (stereo not given in full), for which the result was inactive.

For the molecule `N#Cc1cccc(/C=C2\CCc3ccccc3C2=O)c1`, the EC50 was above 28.2 µM and the half-inhibitory concentration (IC50) came to 20.9 µM. Take `CC(C)(O)C(O)COc1c2c(cc3oc(=O)ccc13)OCO2` (stereo not given): the EC50 is above 813 µM and the IC50 came to 339 µM. With `O=P(O)(OCC(O)O)OCC(O)O`, the result was inactive. Take `CCCSc1nn2cc(NC(=O)OC)nc2s1`: the EC50 was above 200 µM and the IC50 was 2.29 µM. The corresponding values for `CCOC(=O)Nc1nc2ccc(Cn3cccc3)cc2[nH]1` are above 13.2 µM and 0.794 µM. Regarding `CCOC(=O)C(NC(=O)c1nc[nH]c1[N+](=O)[O-])C(C)C` (stereo not given), the EC50 was above 91.2 µM and the IC50 was found to be 63.1 µM. For `CN(C)[C@@H]1C(=O)C(C(N)=O)=C(O)[C@@]2(O)C(=O)C3=C(O)c4c(O)ccc(Cl)c4[C@@](C)(O)[C@H]3C[C@@H]12`, in that order: above 14.1 µM and above 14.1 µM.

On to `CC(C)(C)C1CCC(=O)C(C(O)CC2CC(=O)N(c3ccccc3)C(=O)C2)C1` (stereo not given), for which the EC50 was above 200 µM and the IC50 was above 200 µM.

For `CC(=O)NC(CCC(=O)c1ccc(Cl)cc1Cl)C(=O)O` (stereo not given), the EC50 was above 200 µM and the IC50 was above 200 µM. For `CC1CCC2C(C(=O)O[C@H]3C4C=CO[C@@H](OC5OC(CO)C(O)C(O)C5O)C4[C@@]4(CO)O[C@@H]34)=CO[C@@H](OC3OC(CO)C(O)C(O)C3O)C12` (stereo not given in full), the EC50 is above 200 µM and the 50% inhibitory concentration (IC50) was above 200 µM. On to `COc1ccccc1NC(=O)CC(=O)N1N=C(N2c3ccccc3Sc3ccccc32)CC1c1ccccc1` (stereo not given), for which the EC50 is above 200 µM and the IC50 was above 200 µM. Regarding `COc1ccc(-c2nnc(CCCCCCCCc3nnc(-c4ccc(OC)cc4)n3N)n2N)cc1`, the EC50 was above 200 µM and the IC50 was above 200 µM. Regarding `CC(=O)Nc1ccccc1C[P+](c1ccccc1)(c1ccccc1)c1ccccc1`, the EC50 is above 200 µM and the IC50 is above 200 µM.

In the case of `CC1(C)OCC(C2OC(N3O[C@H](CI)C[C@@H]3c3ccccc3)C3OC(C)(C)OC23)O1` (stereo not given in full), the EC50 was 138 µM and the 50% inhibitory concentration (IC50) is above 200 µM. For `[N-]=[N+]=NCC1OCC(O)C(OCc2ccccc2)C1OCc1ccccc1` (stereo not given), in that order: above 200 µM and 95.5 µM.

`COc1nc(NC2OC(CO)C(O)C(O)C2O)cc(=O)[nH]1` (stereo not given): the result was inactive.

Turning to `COc1ccc(/C=N/NC(=O)c2ccc(OCc3nc4ccccc4[nH]3)cc2)cc1`, the EC50 is 178 µM and the IC50 is above 200 µM. Consider `CCCN1C(=O)CNC(=O)c2[nH]cnc21`, for which the outcome was inactive.

In the case of `CC1CSS(=O)O1` (stereo not given), the EC50 is above 200 µM and the IC50 is above 200 µM. Regarding `C[Si](C)(C)C(CCCCSc1ccccc1)(Sc1ccccc1)Sc1ccccc1`, the outcome was inactive. `Cc1ccc(S(=O)(=O)N2/C(=C/c3ccccc3)C(=O)c3ccccc3-c3ccccc32)cc1`: the EC50 was above 11.5 µM and the 50% inhibitory concentration (IC50) was above 11.5 µM.

For `CCN(CC)CCOc1ccc(C(O)(Cc2ccc(OC)cc2)c2ccccc2)cc1` (stereo not given), the outcome was inactive. `CC/C=C/C(O[Si](C)(C)C(C)(C)C)C1CC2OC(=O)CCCC2O1` (stereo not given): the EC50 was above 708 µM and the IC50 is above 708 µM. For the molecule `O=Cc1[nH]c(=O)[nH]c(=O)c1C(=O)O`, the EC50 is above 200 µM and the IC50 was above 200 µM.

Consider `COc1ccc(C[n+]2cccc(O)c2)cc1`, for which the EC50 was above 200 µM and the IC50 worked out at 112 µM. For the molecule `N#CNC(N)=NCc1ccccc1`, the EC50 was 155 µM and the IC50 turned out to be 204 µM. The corresponding values for `O=NN(CCCl)C(=O)/N=N/C(=O)N(CCCl)N=O` are above 200 µM and 15.1 µM.

On to `CCCCCCCOc1ccc(/C=C\c2cc[n+](CCCCCCCC[n+]3ccc(/C=C\c4ccc(OCCCCCCC)cc4)cc3)cc2)cc1`, for which the EC50 was above 6.46 µM and the IC50 was above 6.46 µM. Turning to `CC1(C)CC[C@]2(C)CC=C3[C@]4(C)CC[C@H]5C(C)(C)C(=O)CC[C@]5(C)[C@H]4CC[C@@]3(C)[C@H]2C1`, the EC50 was above 50.1 µM and the 50% inhibitory concentration (IC50) was above 50.1 µM. In the case of `COc1ccccc1N1CCN(Cn2c(=O)oc3cccnc32)CC1`, the EC50 was above 200 µM and the IC50 was determined as 60.3 µM.

`C=CC1(c2ccc3ccccc3c2)OCC(CC)O1` (stereo not given): the EC50 was above 200 µM and the half-inhibitory concentration (IC50) was determined as 87.1 µM. For `C#CCOC(=O)c1ccc(OC(C)=O)cc1`, in that order: above 200 µM and 191 µM. For `CCCCCC(O)C1C(=O)OC(C)C(O)/C=C/C=C/C=C/C=C\C=C(\C)C(O)CC(O)CC(O)CC(O)CC(O)CC(O)CC1O` (stereo not given), in that order: above 200 µM and above 200 µM. `CC(=O)Nc1ccccc1Sc1ccccc1`: the EC50 was above 245 µM and the IC50 came to 69.2 µM.

Regarding `O=[N+]([O-])c1ccccc1Nc1ccccc1[N+](=O)[O-]`, the EC50 was above 52.5 µM and the IC50 was above 52.5 µM. On to `COC1/C=C/OC2(C)Oc3c(C)c(O)c4c(O)c(cc(OCC(=O)N5CC(C)(C)C5)c4c3C2=O)NC(=O)/C(C)=C/C=CC(C)C(O)C(C)C(O)C(C)C(OC(C)=O)C1C` (stereo not given), for which the EC50 was above 200 µM and the IC50 was 26.9 µM. Consider `N#Cc1nc(C2=C(Cl)c3ccccc3OC2)[nH]c1C#N`, for which the result was inactive. For the molecule `CC(=O)n1c2ccccc2c2nc3nc(Oc4ccc(C)cc4)c4ccccc4c3cc21`, the EC50 was above 6.61 µM and the IC50 was above 6.61 µM. Regarding `COc1ccc(/C(CC2OC(=O)c3ccccc32)=N\NC(=O)C[N+](C)(C)C)cc1` (stereo not given), the EC50 was above 77.6 µM and the IC50 was found to be 24 µM. For `N#CC(NNC(=O)c1ccccc1O)c1ccccc1O` (stereo not given), in that order: above 91.2 µM and 1.58 µM.

For `O=C1CC(CC(O)C2CCCCC2O)CC(=O)N1` (stereo not given), the EC50 was above 200 µM and the IC50 was above 200 µM.

Values taken from PubChem BioAssay AID179 (DTP/NCI, 2004).
